The values below come from patent US11708391B2, “Rapaglutins, novel inhibitors of GLUT and use thereof” (The Johns Hopkins University, priority 2016, dated 2023).

The subject of test [1] is glucose transporters. As to the kind of experiment: 2-deoxy-D-[3H] glucose uptake in A549 cells. In kind it is cell-based, human. As to conditions: A549 cells. The procedure:
FIGS. 2A-2D. Inhibition of Glucose Transport by A18 and E11. (a) Inhibition of 3-O-methyl¬D-[3H] glucose uptake in A549 cells by A18. (b) Inhibition of 3-O-methyl-D-[3H] glucose uptake in A549 cells by E11. (c) Inhibition of 2-deoxy-D-[3H] glucose uptake in A549 […] cells by A18. (d) Inhibition of 2-deoxy-D-[3H] glucose uptake in A549 cells by E11.
FIGS. 16A-16B. Inhibition of Glucose Transport by A18 and E11. Cytochalasin B (10 μM), A18 (3 μM), E11 (3 μM) and DMSO control were used to treated A549 cells for 10 min (a) or 1 min (b), then glucose uptake in the treated cells was measured at 1, 3, 10 and 30 min after the addition of 2-dexoy-D-[^3H] glucose.
Direct action on glucose transporters was measured by monitoring uptake of 3H-labeled 3-O-methylglucose, which is transported by glucose transporters but not metabolized further, allowing the assessment of initial rate of glucose uptake. […] Initial uptake can also be assessed by measuring the uptake of 3H-labeled 2-deoxy-D-glucose, which gets into the cell through glucose transporters and is phosphorylated by hexokinase but cannot be metabolized further due to the lack of oxygen at the second position.

The test system of test [2] is glucose transporters. The following applies: A549; read-out: IC50 (cell line); cited from earlier work.
For test [3], the system named is glucose transporters. The following applies: RCC4; read-out: IC50 (cell line); cited from earlier work.
For test [4], the system named is glucose transporters. As to conditions: CHO-K1; read-out: IC50 (cell line); cited from earlier work.
The test system of test [5] is glucose transporters. The following applies: HL-60; read-out: IC50 (cell line); cited from earlier work.
Test [6] concerns glucose transporters. As to conditions: SW620; read-out: IC50 (cell line); cited from earlier work.
Test [7] concerns glucose transporters. As to conditions: DU145; read-out: IC50 (cell line); cited from earlier work.
Test [8] concerns glucose transporters. The following applies: LNCaP; read-out: IC50 (cell line); cited from earlier work.

Like-named read-outs stand apart in the source and are kept apart here. A value given as a limit tells only on which side of the number the result lay.

For `CCC(C)(C)C(=O)C(=O)N1CCCC[C@H]1C(=O)O[C@H](CCc1ccc(OC)c(OC)c1)c1cccc(OCC(=O)O)c1` [SLF, reference compound], in the test with glucose transporters [1], the “antagonism of inhibitory effects of A18 or E11 on 2-deoxy-D-glucose uptake by FKBP ligands” value is “significantly impaired the inhibitory activity of E11”. For the compound `O=C(Oc1cccc(F)c1OC(=O)c1cccc(O)c1)c1cccc(O)c1` [WZB117], the half-inhibitory concentration (IC50) in the test with glucose transporters [2] was roughly 500 nM. For the compound `CC(C)(C)c1ccc(S(=O)(=O)NCc2ccc(C(=O)Nc3cccnc3)cc2)cc1` [STF-31], the 50% inhibitory concentration (IC50) in the test with glucose transporters [3] is roughly 1200 nM. As for `CCOC(=O)[C@@]12CCCCC/C=C\1N(C(=O)c1cccc3ccccc13)C(=O)[C@H]2CC(=O)N1CCN(C(=O)c2ccco2)CC1` [Compound 11], the 50% inhibitory concentration (IC50) in the test with glucose transporters [4] was 2000 nM.

For the compound `O=c1c(-c2ccc(O)cc2)coc2cc(O)cc(O)c12` [Genistein], the IC50 in the test with glucose transporters [5] is roughly 12000 nM. Take `O=C(CCc1ccc(O)cc1)c1c(O)cc(O)cc1O` [Phloretin]: the IC50 in the test with glucose transporters [6] is greater than 10000 nM.

Take `CC(=O)CC(=O)Nc1ccc(Cl)c(C(F)(F)F)c1` [Fasentin]: in the test with glucose transporters [7], the IC50 is roughly 80000 nM. As for `CC(CN1C(=O)S/C(=C/c2ccc(O)c(C(F)(F)F)c2)C1=O)(CC(F)(F)F)CC(F)(F)F` [Cpd30], the IC50 in the test on glucose transporters [8] was 2000 nM.

The IC50 is the point on the concentration scale where inhibition reaches its midpoint.
